This is an account of results in US20220016146A1, “METHOD OF TREATING AGE-RELATED MACULAR DEGENERATION” (ZHUHAI QiWEl BIO-TECHNOLOGY LTD., priority 2018, published 2022).

For series [1], the system named is Bacillus megaterium. Briefly: Antibiotic sensitivity testing in petri dishes (MIC method). Format: cell-based. The settings on record: FIG. 1; for sensitivity of Bacillus megaterium to antimicrobial agent / control of growth in vitro: 1*10^7 bacteria per culture, 37° C., 24 h. As for the experimental part:
The bacterial culture medium (HuanKai Microbial, Guangzhou, China) containing peptone 5 g, beef extract 3 g, NaCl 5 g, agar 15 g, and MnSO4 5 mg in 1 L ddH2O (pH=7.2) was prepared in conical flask (Drtech, Guangzhou, China) and was sterilized in the autoclave (HIRAYAMA, HEV-50, Japan) at 121° C. for 30 min. Antibiotics (ampicillin, vancomycin, neomycin, metronidazole, and tetracycline, purchased from Sigma, USA) at various concentrations were added into cooled medium. Bacillus megaterium (total 1*10^7 per culture) was cultured in the incubator (HettCube 200, Germany) at 37° C. for 24 h.
To test whether antibiotics can control the growth of Bacillus megaterium in vitro and in vivo, an antibiotic sensitivity screening test in petri dishes was carried out. The sensitivity of Bacillus megaterium to several major antimicrobial agents including Ampicillin, vancomycin, neomycin, metronidazole, and tetracycline were examined using the minimum inhibitory concentration (MIC) method.

In series [2] the test system is Bacillus megaterium. Format: in vivo, monkey. How it is done:
The inventors collected both AH and vitreous humor (VH) specimens from AMD patients and were able to detect B. megaterium DNA in both uncultured and cultured samples. The inventors further examined whether subretinal inoculation of AH and VH cultures which had B. megaterium, as well as the cultured single species of B. megaterium led to AMD like pathology in macaque. Briefly, about 20 CFU of bacteria (in 20 μl PBS) from AH, VH, and B. megaterium cultures were injected subretinally and PBS was used as a control. The fundus examination of macaque eye was performed before (Day 0) and after bacterial inoculation on Day 1, Day 3, Day 35 as well as Day 47. The PBS injection left only visible scar on the retina, while all bacterial inoculations led to drusenoid lesions on retinal tissues. Drusen-like nodules were also visible under the RPE layer. Fluorescence in situ hybridization results also located B. megaterium in drusenoid but not in the normal tissues post inoculation. An elevation in the expression of C5A, CFH, CASPASE1, and NLRP3 proteins was also detected in the B. megaterium infected drusenoid lesion and para-lesion tissues as compared to the uninfected normal retina in macaque.
Next, Bacillus megaterium subretinal inoculation model was used to test whether antibiotics might be able to change the bacteria-induced drusenoid pathology in monkey retinal tissues.

Take `Cc1ncc([N+](=O)[O-])n1CCO` [metronidazole]: the “fold less effective in controlling the growth of Bacillus megaterium” value in series [1] (compared with neomycin) is 10000 fold. As to `CN[C@H](CC(C)C)C(=O)N[C@H]1C(=O)N[C@@H](CC(N)=O)C(=O)N[C@H]2C(=O)N[C@H]3C(=O)N[C@H](C(=O)N[C@H](C(=O)O)c4cc(O)cc(O)c4-c4cc3ccc4O)[C@H](O)c3ccc(c(Cl)c3)Oc3cc2cc(c3O[C@@H]2O[C@H](CO)[C@@H](O)[C@H](O)[C@H]2O[C@H]2C[C@](C)(N)[C@H](O)[C@H](C)O2)Oc2ccc(cc2Cl)[C@H]1O` [vancomycin], the “size of drusenoid lesion in retinal tissue” value in series [2] (intravitreous 0.5 mg, one injection on Day 2 post bacterial inoculation, monkey, FIG. 2) is recorded as “reduction in the size of drusenoid lesion”. Further, the “sensitivity of Bacillus megaterium to antimicrobial agent / control of growth in vitro” value in series [1] is reported as “able to inhibit the growth”. neomycin: the “ocular complications after intraocular administration” value in series [2] (intraocular administration in monkey (data not shown)) was “significant ocular complications including ophthalmatrophia”. The “sensitivity of Bacillus megaterium to antimicrobial agent / control of growth in vitro” value in series [1] is on record as “most sensitive”.
